Experimental data: patent US9403756B2, “N-phenyl anthranilic acid derivatives and uses thereof” (Ramot at Tel-Aviv University Ltd., priority 2007, dated 2016)

What was measured:
Type in all cases: cell-based
homomeric KCNQ3 channels = target: T1, homomeric KCNQ3 channels (Homo sapiens, UniProt O43525); experiment: Homomeric KCNQ3 channels; conditions: 25 μM; very small currents through homomeric KCNQ3
T1 construct: expressed in transfected cells
Experimental: (§1) FIG. 8 presents a bar-graph comparing the potentiating effect of 25 μM of Compound NH29 on various KCNQ subunits and mutants, wherein the opener effect is expressed as percent of the control current in the absence of the opener;
FIG. 8 presents a bar-graph comparing the potentiating effect of 25 μM of Compound NH29 on various KCNQ subunits and mutants, wherein the opener effect is expressed as percent of the control current in the absence of the opener.

[1] = target: T2, TRPV1 channels in Dorsal Root Ganglions (DRG) (Rattus norvegicus, UniProt O35433); experiment: TRPV1 currents in DRG neurons activated by capsaicin; conditions: 5 μM; 0.5 μM capsaicin; reversible
T2 construct: endogenous in cells; host or cells: primary rat dorsal root ganglion neurons
Experimental: FIG. 14 presents the inhibitory effect of NH29, an exemplary compound according to some embodiments of the present invention, on TRPV1 channels in Dorsal Root Ganglions (DRG).
For dorsal root ganglion (DRG) neuronal cultures, ganglia were dissected from 2-5 day-old Sprague-Dawley rats killed by decapitation. DRGs were placed in Hank's balanced saline solution (HBSS) and prepared by enzymatic dissociation. Briefly, after 30 minutes incubation in 5 mg/ml dispase, 2 mg/ml collagenase type 1A and 0.1 mg/ml DNase (Invitrogen/Gibco, Carlsbad, Calif.) in Ca^2+ and Mg^2+-free HBSS, the ganglia were mechanically triturated with a fire-polished glass Pasteur pipette. The ganglia were then centrifuged for 5 minutes at 80×g and resuspended in DMEM supplemented with 2 mM L-glutamine, 16.5 mM NaHCO3, 6 g/l glucose, 5 ml penicillin/streptomycin and 10% fetal calf serum.
For electrophysiological recording, dissociated neurons were plated on 13 mm glass coverslips, previously coated with poly-D-lysine (1 mg/ml) and laminin (10 μg/ml) and used at 1-2 days in culture.

Kv7.3 mutant A315T = target: T3, Kv7.3 mutant A315T (Homo sapiens, UniProt O43525, A315T); experiment: Activation of Kv7.3 mutant A315T
T3 construct: expressed in transfected cells
Excerpt: Among the Kv7 channel family, NH29 appeared to act as an opener of Kv7.2 but not of Kv7.1 and Kv7.4.

KCNQ2 mutant Y118S = target: T4, KCNQ2 mutant Y118S (Homo sapiens, UniProt O43526, Y118S); experiment: KCNQ2 mutant Y118S; conditions: 25 μM NH29
T4 construct: expressed in transfected cells
Experimental: as §1

KCNQ2 mutant R198A = target: T5, KCNQ2 mutant R198A (Homo sapiens, UniProt O43526, R198A); experiment: KCNQ2 S4 mutant R198A; conditions: 25 μM NH29 (25 M [sic])
T5 construct: expressed in transfected cells
Excerpt: FIGS. 12A-F present the potentiating effect of NH29, an exemplary channel opener compound according to embodiments of the present invention, on selected KCNQ2 mutants. Shown are bar diagrams comparing the potentiating effect of NH29 on native KCNQ2 and KCNQ2 mutants, wherein the mutated amino acids are located at the S1-S2 helix region (FIG. 12A) or S4 helix region (FIG. 12D) and wherein the opener effect is expressed as percent of the control current in the absence of the opener. For comparison, marked as a green line, is the observed current increase of native KCNQ2 by NH29. FIGS. 12B 12C, 12E and 12F present representative traces recorded from CHO cell transfected with the KCNQ2 mutant S122A, S121A, L206C and R201A respectively, before and after external application of 25 μM of NH29 and wherein the membrane potential was stepped from −90 mV holding potential to −40 mV for 1.5 seconds pulse duration.
Voltage-clamp recordings in CHO cells were performed, using the whole-cell configuration of the patch-clamp technique. Signals were amplified using an Axopatch 200B patch-clamp amplifier (Molecular Devices, Sunnyvale, Calif.), sampled at 2 kHz and filtered at 800 Hz via a 4-pole Bessel low pass filter. […] Series resistances (3-13 MΩ) were compensated (75-90%) and periodically monitored.

Kv1.2 = target: T6, Kv1.2 (Homo sapiens, UniProt P16389); experiment: Kv channel selectivity, transfected CHO cells: Kv1.2; conditions: for Fold current amplitude: 0 mV, transfected CHO cells
T6 construct: expressed in transfected cells; host or cells: CHO cells
Experimental: Voltage-clamp recordings in CHO cells were performed, using the whole-cell configuration of the patch-clamp technique. Signals were amplified using an Axopatch 200B patch-clamp amplifier (Molecular Devices, Sunnyvale, Calif.), sampled at 2 kHz and filtered at 800 Hz via a 4-pole Bessel low pass filter. Data were acquired using pClamp 9.2 software (Molecular Devices) and an IBM compatible Pentium IV computer in conjunction with a DigiData 1322A interface (Molecular Devices). The patch pipettes were pulled from borosilicate glass (Warner Instrument Corp, USA) with a resistance of 2-5 MΩ. For K^+ current recordings in CHO cells, the intracellular pipette solution contained (in mM): 130 KCl, 1 MgCl2, 5 K2ATP, 5 EGTA, 10 HEPES, adjusted with KOH to pH 7.4 (290 mOsm). The extracellular solution contained (in mM): 140 NaCl, 4 KCl, 1.8 CaCl2, 1.2 MgCl2, 11 glucose, 5.5 HEPES, adjusted with NaOH to pH 7.4 (310 mOsm). Series resistances (3-13 MΩ) were compensated (75-90%) and periodically monitored.
(§2) The selectivity of NH29 on other relevant Kv channels expressed in Xenopus oocytes was also studied, and the results are summarized in Table 3 below. The specificity of NH29 at 25 μM and 50 μM towards various Kv channels was tested in Xenopus oocytes, except for Kv1.2 which was checked in transfected CHO cells. The current amplitude of the various Kv channels was tested at the indicated voltages and the effect of the drugs was expressed as fold of the control amplitude measured under the same conditions in the absence of the drug. The data in Table 3 are expressed as mean±SEM of 5-7 separate experiments.

Kv 4.3 = target: T7, Kv 4.3 (Homo sapiens, UniProt Q9UK17); experiment: Kv channel selectivity, Xenopus oocytes: Kv4.3; conditions: 25 μM, +30 mV
T7 construct: expressed in transfected cells; host or cells: Xenopus oocytes
Experimental: Voltage-clamp measurements in Xenopus oocytes were performed as previously described.
as §2

T6 sequence (P16389 whole entry): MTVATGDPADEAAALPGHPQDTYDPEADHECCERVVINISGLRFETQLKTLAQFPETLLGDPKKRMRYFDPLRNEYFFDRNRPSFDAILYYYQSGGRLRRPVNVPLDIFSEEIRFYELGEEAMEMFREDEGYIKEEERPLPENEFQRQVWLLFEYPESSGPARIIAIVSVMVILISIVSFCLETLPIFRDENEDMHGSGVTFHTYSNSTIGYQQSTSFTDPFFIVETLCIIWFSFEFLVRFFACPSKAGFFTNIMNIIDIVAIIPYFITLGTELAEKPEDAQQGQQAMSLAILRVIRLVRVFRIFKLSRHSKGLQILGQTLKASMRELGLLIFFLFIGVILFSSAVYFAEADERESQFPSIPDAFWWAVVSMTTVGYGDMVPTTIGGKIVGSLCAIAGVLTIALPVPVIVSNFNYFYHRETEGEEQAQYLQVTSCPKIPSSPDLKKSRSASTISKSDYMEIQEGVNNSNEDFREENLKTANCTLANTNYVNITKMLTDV
T4 sequence (O43526 whole entry Y118S): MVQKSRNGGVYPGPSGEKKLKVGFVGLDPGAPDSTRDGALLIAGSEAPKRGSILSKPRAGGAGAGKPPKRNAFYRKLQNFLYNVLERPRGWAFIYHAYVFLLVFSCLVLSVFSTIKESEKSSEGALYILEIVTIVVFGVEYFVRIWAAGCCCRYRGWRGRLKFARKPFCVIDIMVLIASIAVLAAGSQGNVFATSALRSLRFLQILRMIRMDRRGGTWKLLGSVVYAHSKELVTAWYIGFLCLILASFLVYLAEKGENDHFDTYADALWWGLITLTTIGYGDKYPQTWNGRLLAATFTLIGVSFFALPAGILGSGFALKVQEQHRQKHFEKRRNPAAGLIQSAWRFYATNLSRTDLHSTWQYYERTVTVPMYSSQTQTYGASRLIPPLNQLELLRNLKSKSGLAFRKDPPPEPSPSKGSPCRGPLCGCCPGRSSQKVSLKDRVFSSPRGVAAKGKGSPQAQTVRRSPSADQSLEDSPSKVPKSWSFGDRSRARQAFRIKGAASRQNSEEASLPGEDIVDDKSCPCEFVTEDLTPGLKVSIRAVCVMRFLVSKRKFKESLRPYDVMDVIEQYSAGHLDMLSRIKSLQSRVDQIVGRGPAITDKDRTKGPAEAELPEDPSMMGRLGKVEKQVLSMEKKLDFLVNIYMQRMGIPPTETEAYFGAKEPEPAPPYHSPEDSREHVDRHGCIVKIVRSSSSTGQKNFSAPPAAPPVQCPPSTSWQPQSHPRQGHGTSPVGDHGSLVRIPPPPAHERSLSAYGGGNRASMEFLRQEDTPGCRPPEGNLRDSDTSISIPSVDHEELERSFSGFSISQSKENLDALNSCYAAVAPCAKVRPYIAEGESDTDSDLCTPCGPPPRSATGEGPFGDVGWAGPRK
T1 sequence (O43525 whole entry): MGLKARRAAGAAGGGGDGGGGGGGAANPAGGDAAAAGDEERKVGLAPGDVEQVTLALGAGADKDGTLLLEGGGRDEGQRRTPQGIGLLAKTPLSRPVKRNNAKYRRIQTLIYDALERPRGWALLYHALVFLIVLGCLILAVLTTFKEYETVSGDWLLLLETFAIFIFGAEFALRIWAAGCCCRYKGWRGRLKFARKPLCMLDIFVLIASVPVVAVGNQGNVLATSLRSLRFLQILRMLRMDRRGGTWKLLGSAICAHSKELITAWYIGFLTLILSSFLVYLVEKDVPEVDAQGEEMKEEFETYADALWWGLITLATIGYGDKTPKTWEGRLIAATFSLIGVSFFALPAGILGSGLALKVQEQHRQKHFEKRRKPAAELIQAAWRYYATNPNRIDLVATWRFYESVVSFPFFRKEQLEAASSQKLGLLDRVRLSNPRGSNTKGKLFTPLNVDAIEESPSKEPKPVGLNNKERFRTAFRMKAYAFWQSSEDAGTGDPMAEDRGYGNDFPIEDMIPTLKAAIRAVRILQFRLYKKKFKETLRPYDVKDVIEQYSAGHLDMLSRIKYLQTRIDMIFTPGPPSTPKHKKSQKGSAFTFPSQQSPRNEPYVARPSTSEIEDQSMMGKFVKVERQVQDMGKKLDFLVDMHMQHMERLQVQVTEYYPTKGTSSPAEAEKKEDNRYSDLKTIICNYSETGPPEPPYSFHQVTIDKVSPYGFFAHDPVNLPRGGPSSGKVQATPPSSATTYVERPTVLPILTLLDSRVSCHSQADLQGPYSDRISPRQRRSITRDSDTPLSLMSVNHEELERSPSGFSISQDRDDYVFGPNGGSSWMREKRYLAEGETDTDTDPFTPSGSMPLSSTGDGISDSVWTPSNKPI
T3 sequence (O43525 whole entry A315T): as the sequence (O43525 whole entry) above, with A315T counted along it
T2 sequence (O35433 whole entry): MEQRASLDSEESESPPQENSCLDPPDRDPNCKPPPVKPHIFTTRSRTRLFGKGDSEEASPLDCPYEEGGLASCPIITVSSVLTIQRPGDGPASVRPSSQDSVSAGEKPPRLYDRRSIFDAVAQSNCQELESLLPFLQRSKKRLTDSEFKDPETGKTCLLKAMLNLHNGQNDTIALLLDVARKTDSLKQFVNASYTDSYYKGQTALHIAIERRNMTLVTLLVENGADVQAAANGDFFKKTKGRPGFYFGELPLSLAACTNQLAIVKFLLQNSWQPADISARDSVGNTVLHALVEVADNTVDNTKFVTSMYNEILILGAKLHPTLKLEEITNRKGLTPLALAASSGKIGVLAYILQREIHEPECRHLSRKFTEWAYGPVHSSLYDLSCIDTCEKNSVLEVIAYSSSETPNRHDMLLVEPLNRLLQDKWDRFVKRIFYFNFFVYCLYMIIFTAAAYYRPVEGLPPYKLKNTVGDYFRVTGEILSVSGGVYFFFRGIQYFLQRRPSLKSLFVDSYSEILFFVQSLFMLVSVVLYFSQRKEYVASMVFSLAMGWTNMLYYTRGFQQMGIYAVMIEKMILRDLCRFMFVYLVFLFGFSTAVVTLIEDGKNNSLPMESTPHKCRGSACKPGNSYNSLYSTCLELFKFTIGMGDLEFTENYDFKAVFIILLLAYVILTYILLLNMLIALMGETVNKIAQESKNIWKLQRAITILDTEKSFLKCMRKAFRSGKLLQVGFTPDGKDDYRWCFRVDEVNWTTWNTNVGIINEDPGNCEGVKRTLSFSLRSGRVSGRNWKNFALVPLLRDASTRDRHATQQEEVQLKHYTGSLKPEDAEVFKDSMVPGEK
T7 sequence (Q9UK17 whole entry): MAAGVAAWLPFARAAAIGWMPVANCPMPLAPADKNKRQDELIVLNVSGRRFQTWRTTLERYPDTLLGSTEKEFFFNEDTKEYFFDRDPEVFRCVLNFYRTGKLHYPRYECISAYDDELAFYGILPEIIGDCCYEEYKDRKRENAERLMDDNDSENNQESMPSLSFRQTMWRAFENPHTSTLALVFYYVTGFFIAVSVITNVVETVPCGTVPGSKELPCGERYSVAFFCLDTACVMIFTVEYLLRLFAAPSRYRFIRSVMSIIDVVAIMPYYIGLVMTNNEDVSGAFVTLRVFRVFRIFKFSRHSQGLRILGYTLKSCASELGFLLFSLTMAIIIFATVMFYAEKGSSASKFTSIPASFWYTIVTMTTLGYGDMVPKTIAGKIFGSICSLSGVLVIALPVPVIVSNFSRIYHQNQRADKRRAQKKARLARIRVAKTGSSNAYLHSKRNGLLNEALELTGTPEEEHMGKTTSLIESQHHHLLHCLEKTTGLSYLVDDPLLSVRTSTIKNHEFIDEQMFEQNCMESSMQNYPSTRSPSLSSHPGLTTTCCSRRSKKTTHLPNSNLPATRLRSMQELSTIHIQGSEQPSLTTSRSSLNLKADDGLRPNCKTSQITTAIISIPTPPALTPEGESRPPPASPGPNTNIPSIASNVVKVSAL
T5 sequence (O43526 whole entry R198A): as the sequence (O43526 whole entry Y118S) above, with S118Y, R198A counted along it

O=C(Cc1cc([N+](=O)[O-])cc([N+](=O)[O-])c1Nc1c(Cl)cc([N+](=O)[O-])cc1Cl)NCCO [NH29]
opening activity on homomeric KCNQ3 channels (homomeric KCNQ3 channels): no opening activity was detected | inhibition of TRPV1 current [1]: almost completely | activation of Kv7.3 mutant A315T (Kv7.3 mutant A315T): could also activate Kv7.3 | fold potentiation of current (KCNQ2 mutant Y118S): 2.1 fold | fold enhancement of current (KCNQ2 mutant R198A): 1.6 fold | Fold current amplitude (Kv1.2; 25 μM): 0.9 ± 0.01 fold | Fold current amplitude (Kv1.2; 50 μM): 0.66 ± 0.03 fold | inhibition at 50 µM (Kv1.2; CHO, 50 μM, read-out: inhibition of Kv1.2 current): 34% | Fold current amplitude (Kv 4.3): 1.1 ± 0.04 fold
